Laboratory results published in US10988496B2, “Platinum (IV) complex” (Nippon Kayaku Kabushiki Kaisha, priority 2015, dated 2021).

What was measured:
Assay type in all cases: cell-based
[1] = test system: gastric cancer cells KATO III; assay: In vitro antitumor assay (Methylene Blue staining), KATO III; details: 72 hours culture with compound; read-out: Cell line IC50 KATO III
Source text: (§1) Gastric cancer and pancreatic cancer cell lines were respectively inoculated on a 96-well plate. Gastric cancer cells KATO III were inoculated at a rate of 1×10^4 cells/well gastric cancer cells MKN-1 were inoculated at a rate of 5×10^5 cells/well, gastric cancer cells MKN-45 were inoculated at a rate of 1×10^4 cells/well, gastric cancer cells MKN-74 were inoculated at a rate of 1×10^4 cells/well, pancreatic cancer cells AsPC-1 were inoculated at a rate of […], pancreatic cancer cells BxPC-3 were inoculated at a rate of 5×10^5 cells/well, pancreatic cancer cells DAN-G were inoculated at a rate of 5×10^5 cells/well, and pancreatic cancer cells SUIT-2 were inoculated at a rate of 5×10^5 cells/well. After culturing the cells for 24 hours, each of the Example compounds or each of the Comparative Example compounds was added to the cells to obtain a final concentration of from 0.0244 μmol/L to 100 μmol/L at a common ratio of 4. Three technical replicates were used. Wells to which no drug was added were prepared as control, and wells to which cells and drugs were not added were prepared as blanks. After the cells were cultured for 72 hours, the culture fluid was removed, the cells were fixed with methanol, and then the cells were stained using a Methylene Blue stain solution. After excess Methylene blue stain solution was washed off, 200 μL of 0.1% hydrochloric acid was added to each well, and the dye was extracted. The light absorbance at 660 nm was measured using a microplate reader, and the cell proliferation inhibitory activity (GI %) was calculated from the light absorbance thus obtained by the following formula. GIXY %=(1−(AXY−B)/(C−B))×100
(§2) Here, GIXY % represents the cell prolj feration-inhibitory activity when the concentration of compound. X is Y μM; AXY represents the average light absorbance of the well to which compound X has been added at Y μM; B represents the light absorbance of a blank well; and C represents the tight absorbance of a control well.
(§3) The GIXY % was determined for various compound concentrations, and a proliferation-inhibition curve was plotted from the concentration and the cell proliferation-inhibitory activity.

[2] = test system: pancreatic cancer cells BxPC-3; assay: In vitro antitumor assay (Methylene Blue staining), BxPC-3; details: 72 hours culture with compound; read-out: Cell line IC50 BxPC-3
Source text: as §1, §2, §3

[3] = test system: gastric cancer cells MKN-74; assay: In vitro antitumor assay (Methylene Blue staining), MKN-74; details: 72 hours culture with compound; read-out: Cell line IC50 MKN-74
Source text: as §1, §2, §3

[4] = test system: pancreatic cancer cells DAN-G; assay: In vitro antitumor assay (Methylene Blue staining), DAN-G; details: 72 hours culture with compound; read-out: Cell line IC50 DAN-G
Source text: as §1, §2, §3

[5] = test system: gastric cancer cells MKN-45; assay: In vitro antitumor assay (Methylene Blue staining), MKN-45; details: 72 hours culture with compound; read-out: Cell line IC50 MKN-45
Source text: as §1, §2, §3

[6] = test system: pancreatic cancer cells AsPC-1; assay: In vitro antitumor assay (Methylene Blue staining), AsPC-1; details: 72 hours culture with compound; read-out: Cell line IC50 AsPC-1
Source text: as §1, §2, §3

[7] = test system: pancreatic cancer cells SUIT-2; assay: In vitro antitumor assay (Methylene Blue staining), SUIT-2; details: 72 hours culture with compound; read-out: Cell line IC50 SUIT-2
Source text: as §1, §2, §3

[8] = test system: gastric cancer cells MKN-1; assay: In vitro antitumor assay (Methylene Blue staining), MKN-1; details: 72 hours culture with compound; read-out: Cell line IC50 MKN-1
Source text: as §1, §2, §3

SMILES	IC50 [1]	IC50 [2]	IC50 [3]	IC50 [4]	IC50 [5]	IC50 [6]	IC50 [7]	IC50 [8]
CC(=O)[O][Pt]1([OH])[O]C(=O)C(=O)[O]1.N[C@@H]1CCCC[C@H]1N (mixture of isomers) [Comparative Example 1, trans,cis,cis-[Pt(OH)(OAc)(R,R-dach) (ox)]]	55.7 µM	44.3 µM	> 100 µM	36.7 µM	6.2 µM	62.9 µM	26.1 µM	45.3 µM
N[C@@H]1CCCC[C@H]1N.O=C1[O][Pt]([Cl])([O]CCO)[O]C1=O (mixture of isomers) [Comparative Example 2, trans,cis,cis-[PtCl (OCH2CH2OH) (R,R-dach) (ox)]]	42.6 µM	5.7 µM	58.1 µM	5.6 µM	1.9 µM	9.7 µM	6.1 µM	10.8 µM
N[C@@H]1CCCC[C@H]1N.O=C1[O][Pt]([OH])([OH])[O]C1=O (mixture of isomers) [Comparative Example 3, trans,cis,cis-[Pt(OH)2 (R,R-dach) (ox)]]	–	–	> 100 µM	> 100 µM	–	–	39.2 µM	> 100 µM
N[C@@H]1CCCC[C@H]1N.O=C1[O][Pt]([OH])([Cl])[O]C(=O)C12CCC2 (mixture of isomers) [Comparative Example 5, trans,cis,cis-[PtCl(OH) (R,R-dach) (cbdc)]]	–	–	29 µM	3.4 µM	–	–	3.3 µM	4.5 µM
N[C@@H]1CCCC[C@H]1N.O=C1[O][Pt]([OH])([OH])[O]C(=O)C12CCC2 (mixture of isomers) [Comparative Example 6, trans,cis,cis-[Pt(OH)2(R,R-dach) (cbdc)]]	–	–	> 100 µM	> 100 µM	–	–	79.4 µM	> 100 µM
N[C@@H]1CCCC[C@H]1N.O=C([O-])C(=O)[O-].[Cl-].[OH-].[Pt+4] (mixture of isomers) [Example 1, trans,cis,cis-[PtCl(OH) (R,R-dach) (ox)]]	13.8 µM	1.2 µM	16 µM	1 µM	0.3 µM	3.1 µM	0.9 µM	1.9 µM
N[C@@H]1CCCC[C@H]1N.O=C1[O][Pt]([OH])([Br])[O]C1=O (mixture of isomers) [Example 2, trans,cis,cis-[PtBr(OH) (R,R-dach) (ox)]]	–	–	–	–	–	–	1.5 µM	2.7 µM
N[C@@H]1CCCC[C@H]1N.[OH][Pt]([Cl])([Cl])[Cl] (mixture of isomers) [Example 3, trans,cis,cis-[PtCl(OH) (R,R-dach) (Cl)2]]	–	–	17.1 µM	8.6 µM	–	–	0.9 µM	2.6 µM
N[C@@H]1CCCC[C@H]1N.O=C(CCc1ccccc1)[O][Pt]1([O]C(=O)CCc2ccccc2)[O]C(=O)C(=O)[O]1 [Comparative Example 4, trans,cis,cis-[Pt(OCOCH2CH2C6H5)2 (R,R-dach)(ox)]]	–	–	27.3 µM	6.8 µM	–	–	1 µM	9.2 µM
N[C@@H]1CCCC[C@H]1N.O=C([O-])C(=O)[O-].[Pt+2] [Example 1-OHP, oxaliplatin]	9.2 µM	0.8 µM	8.6 µM	1.1 µM	0.1 µM	1.6 µM	–	0.5 µM
NC1CCCCC1N.[Cl][Pt][Cl] (stereo not shown) [Pt(dach)Cl2]	13.8 µM	3.4 µM	22.3 µM	8.5 µM	0.5 µM	14.7 µM	2.1 µM	3.7 µM
